Laboratory results from US9255132B2, “Angiopoietin derived peptides” (Compugen Ltd., priority 2008, dated 2016).
Residues, ends and D or L forms follow the SMILES beside them.

What follows are molecules tested against T1, human Ang4 (Homo sapiens, UniProt Q9Y264) (assay: BIACORE (SPR) binding of peptides to immobilized recombinant Ang4). Conditions: CM5 chip, 10-50 μM peptide.
T1 construct: purchased R&D Systems 964-AN-025/CF
T1 sequence (Q9Y264 25-503): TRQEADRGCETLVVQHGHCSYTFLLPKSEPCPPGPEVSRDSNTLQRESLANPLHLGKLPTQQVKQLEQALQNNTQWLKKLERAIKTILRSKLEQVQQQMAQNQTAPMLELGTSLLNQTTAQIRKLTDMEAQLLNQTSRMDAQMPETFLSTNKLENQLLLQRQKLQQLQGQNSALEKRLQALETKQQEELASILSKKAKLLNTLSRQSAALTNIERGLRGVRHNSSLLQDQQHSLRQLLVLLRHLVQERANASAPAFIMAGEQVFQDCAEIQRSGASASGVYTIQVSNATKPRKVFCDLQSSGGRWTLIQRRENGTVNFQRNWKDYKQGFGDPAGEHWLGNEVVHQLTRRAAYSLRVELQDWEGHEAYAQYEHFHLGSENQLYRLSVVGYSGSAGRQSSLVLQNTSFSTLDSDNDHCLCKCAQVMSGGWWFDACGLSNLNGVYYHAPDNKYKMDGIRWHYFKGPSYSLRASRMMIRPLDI
Text: The capability of CGEN-H2 [SEQ ID NO: 1], CGEN-H3 [SEQ ID NO: 2], CGEN-A8 [SEQ ID NO: 3], CGEN-H7 [SEQ ID NO: 4], CGEN-G4 [SEQ ID NO: 5], CGEN-G6 [SEQ ID NO: 6], CGEN-F9 [SEQ ID NO: 7], CGEN-F12 [SEQ ID NO: 8], CGEN-C6-30 [SEQ ID NO: 9], CGEN-All [SEQ ID NO: 10], and CGEN-G2 [SEQ ID NO: 11] to specifically bind to recombinant Ang1, Ang2, and Ang4 was investigated using the BIACORE technology, measuring protein-protein interaction and binding affinity (Wendler et al 2005, Anal Bioanal Chem, 381: 1056-1064). The technology is based on surface plasmon resonance (SPR), an optical phenomenon that enables detection of unlabeled interactants in real time. The SPR-based biosensors can be used in determination of active concentration, screening and characterization in terms of both affinity and kinetics.
Peptide-protein binding was analyzed using surface plasmon resonance. Analysis of the to interaction between CGEN-H2 [SEQ ID NO: 1], CGEN-H3 [SEQ ID NO: 2], CGEN-A8 [SEQ ID NO: 3], CGEN-H7 [SEQ ID NO: 4], CGEN-G4 [SEQ ID NO: 5], CGEN-G6 [SEQ ID NO: 6], CGEN-F9 [SEQ ID NO: 7], CGEN-F12 [SEQ ID NO: 8], CGEN-C6 [SEQ ID NO: 9], CGEN-A11 [SEQ ID NO: 10], and CGEN-G2 [SEQ ID NO: 11] peptides and recombinant human Ang1 carrier-free (R&D Systems, Cat#923-AN-025/CF, Lot#FHW1507031), human Ang2 carrier-free (R&D Systems, Cat#623-AN-025/CF, Lot#BNO0457121), and human Ang4 carrier-free (R&D Systems, Cat#964-AN-025/CF, Lot#ELM025121) was conducted using the BIAcore biosensor (Pharmacia Biosensor, Uppsala, Sweden). The recombinant Ang1, Ang2, and Ang4 were immobilized directly to a CM5 sensor chip. Solutions containing 10-50 μM of CGEN-H2 [SEQ ID NO: 1], CGEN-H3 [SEQ ID NO: 2], CGEN-A8 [SEQ ID NO: 3], CGEN-H7 [SEQ ID NO: 4], CGEN-G4 [SEQ ID NO: 5], CGEN-G6 [SEQ ID NO: 6], CGEN-F9 [SEQ ID NO: 7], CGEN-F12 [SEQ ID NO: 8], CGEN-C6 [SEQ ID NO: 9], CGEN-A11 [SEQ ID NO: 10], and CGEN-G2 [SEQ ID NO: 11] peptides were injected into the sample chamber of the BIACORE device at a rate of […] and the interaction was monitored using surface plasmon resonance.
Solutions containing different concentrations of CGEN-G6 [SEQ ID NO: 6], CGEN-F9 [SEQ ID NO: 7], CGEN-F12 [SEQ ID NO: 8], CGEN-A11 [SEQ ID NO: 10], and CGEN-G2 [SEQ ID NO: 11] peptides (as indicated in Table 2) were injected into the sample chamber of the BIACORE device at a rate of […] and the interaction was monitored using surface plasmon resonance. As a background, the solutions were also injected onto an empty flow cell with no immobilized ligand and the in binding levels achieved were subtracted. Data was analyzed using BIAevaluation software. The affinity constant of the interaction between CGEN-G6 [SEQ ID NO: 6], CGEN-F9 [SEQ ID NO: 7], CGEN-F12 [SEQ ID NO: 8], CGEN-C6 [SEQ ID NO: 9], CGEN-A11 [SEQ ID NO: 10], and CGEN-G2 [SEQ ID NO: 11] and Ang1, Ang2, or Ang4 was determined by direct kinetic analysis. The 1:1 Langmuir binding model was used to fit kinetic data.
Table 2 summarizes results of analysis of CGEN-G6 [SEQ ID NO: 6], CGEN-F9 [SEQ ID NO: 7], CGEN-F12 [SEQ ID NO: 8], CGEN-A11 [SEQ ID NO: 10], and CGEN-G2 [SEQ ID NO: 11] interaction with Ang1, Ang2, or Ang4. Kinetic measurements were done at the indicated concentration range, and they are presented as KD (M). CGEN-F12 [SEQ ID NO: 8] bound to Ang1 and Ang4 with high affinity. The specificity of this binding is not clear.

binding to immobilized Ang4 (in words) | Structure (SMILES)
capable of binding | CSCC[C@H](NC(=O)[C@H](CC(C)C)NC(=O)[C@H](CC(=O)O)NC(C)=O)C(=O)N[C@@H](CCC(=O)O)C(=O)N[C@H](C(=O)N[C@H](C(=O)N[C@@H](CC(N)=O)C(=O)N[C@@H](CC(N)=O)C(=O)N[C@@H](CC(C)C)C(=O)N[C@@H](CC(C)C)C(=O)N[C@H](C(=O)N[C@@H](CCSC)C(=O)N[C@@H](CCSC)C(=O)N[C@@H](CO)C(=O)N[C@H](C(=O)N[C@@H](CO)C(=O)N[C@@H](CC(N)=O)C(=O)N[C@@H](CO)C(=O)N[C@@H](C)C(=O)N[C@@H](CCCCN)C(=O)N[C@@H](CC(=O)O)C(N)=O)[C@@H](C)O)[C@@H](C)O)C(C)C)[C@@H](C)O [CGEN-G6] (Ac-DLMETVNNLLTMMSTSNSAKD-NH2)
capable of binding | CC[C@H](C)[C@H](NC(=O)[C@H](C)NC(=O)[C@H](CCCNC(=N)N)NC(=O)[C@H](CCC(=O)O)NC(=O)[C@H](CC(C)C)NC(=O)[C@H](CCCCN)NC(=O)[C@H](CCCCN)NC(=O)[C@H](CC(C)C)NC(=O)[C@H](Cc1c[nH]c2ccccc12)NC(=O)[C@H](CCC(N)=O)NC(=O)[C@@H](NC(=O)[C@H](CC(N)=O)NC(=O)[C@H](CC(N)=O)NC(=O)[C@H](CCC(N)=O)NC(=O)[C@H](CC(C)C)NC(=O)[C@H](C)NC(=O)[C@H](CCC(N)=O)NC(=O)[C@H](CCC(=O)O)NC(=O)[C@H](CC(C)C)NC(=O)[C@H](CCC(N)=O)NC(=O)[C@H](CCCCN)NC(=O)[C@@H](NC(=O)[C@H](CCC(N)=O)NC(=O)[C@H](CCC(N)=O)NC(=O)[C@@H](NC(C)=O)[C@@H](C)O)C(C)C)[C@@H](C)O)C(=O)N[C@@H](CCCCN)C(=O)N[C@H](C(=O)N[C@H](C(=O)N[C@@H](CC(C)C)C(N)=O)[C@@H](C)CC)[C@@H](C)O [CGEN-G2] (Ac-TQQVKQLEQALQNNTQWLKKLERAIKTIL-NH2)
capable of binding | CC(=O)N[C@@H](CCC(=O)O)C(=O)N[C@H](C(=O)N[C@@H](Cc1ccccc1)C(=O)N[C@@H](CC(C)C)C(=O)N[C@@H](CO)C(=O)N[C@H](C(=O)N[C@@H](CC(N)=O)C(=O)N[C@@H](CCCCN)C(=O)N[C@@H](CC(C)C)C(=O)N[C@@H](CCC(=O)O)C(=O)N[C@@H](CC(N)=O)C(=O)N[C@@H](CCC(N)=O)C(N)=O)[C@@H](C)O)[C@@H](C)O [CGEN-A11, ETFLSTNKLENQ] (Ac-ETFLSTNKLENQ-NH2)
